Test system: Dirofilaria immitis microfilariae
Assay: Dirofilaria immitis microfilariae immobility assay (DiroImager, 72 h)
Details: for EC50: Dirofilaria immitis, 72 h, read-out: Dirofilaria immitis filariae EC50
Procedure, shortened: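 Motility read after 72 h drug exposure with an image-based high-throughput plate imager, 1% DMSO medium serving as negative control. Missouri-isolate microfilariae, roughly 250 per well, freshly purified and cultured in supplemented RPMI 1640.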

[1] = 0.08 µM, Dirofilaria immitis microfilariae
[2] = 0.4 µM, Dirofilaria immitis microfilariae
[3] = 2 µM, Dirofilaria immitis microfilariae
[4] = 10 µM, Dirofilaria immitis microfilariae
[5] = 50 µM, Dirofilaria immitis microfilariae

SMILES	% effect (motility), DIROIM MF (0.016 µM) [%]	% effect (motility), DIROIM MF (0.08 µM) [%]	% effect (motility), DIROIM MF (0.4 µM) [%]	% effect (motility), DIROIM MF (2 µM) [%]	% effect (motility), DIROIM MF (10 µM) [%]	% effect (motility), DIROIM MF (50 µM) [%]	EC50 [µM]	% effect (motility), DIROIM MF [1] [%]	% effect (motility), DIROIM MF [2] [%]	% effect (motility), DIROIM MF [3] [%]	% effect (motility), DIROIM MF [4] [%]	% effect (motility), DIROIM MF [5] [%]
O=[N+]([O-])c1ccc(N2CCN(CC3CCCCC3)CC2)cc1 [Nemacol-1]	0	0	0	20	100	100	2.2	–	–	–	–	–
O=[N+]([O-])c1ccc(N2CCN(CC3CC4C=CC3C4)CC2)cc1 (stereo not shown) [Nemacol-3]	–	–	–	–	–	–	9.1	0	0	0	80	100
O=[N+]([O-])c1ccc(N2CCN(CC3CC=CCC3)CC2)cc1 (stereo not shown) [Nemacol-4]	–	–	–	–	–	–	5.2	0	0	0	100	100

From publication PMC10066365, “Nemacol is a small molecule inhibitor of C. elegans vesicular acetylcholine transporter with anthelmintic potential” (Nature Communications, 2023)
